Measured values from ChEMBL document CHEMBL4393650, “The Journey of HIV-1 Non-Nucleoside Reverse Transcriptase Inhibitors (NNRTIs) from Lab to Clinic” (J Med Chem, 2019).
Blank lines part the entries; values can stand above or below the molecule they belong to.

Columns and labels:
[1] = Cmax in rat; format: ADME; details: in vivo
[2] = Cmax in Beagle dog; format: ADME, Canis lupus familiaris; details: in vivo
[3] = Tmax in rat; format: ADME; details: in vivo
[4] = Lipophilicity, log P of the compound; format: physicochemical; details: octanol/water
[5] = system: Human immunodeficiency virus 1; assay: Antiviral activity against HIV1 subtype B; format: functional, organism-based; details: Human immunodeficiency virus 1, subtype B
[6] = Half life in human serum at 200 mg, bid; format: ADME, cell-free
[7] = Oral bioavailability in human; format: ADME, organism-based; details: in vivo
[8] = target: Human immunodeficiency virus type 1 reverse transcriptase (Human immunodeficiency virus 1) (UniProt Q72547); assay: Inhibition of HIV1 3B reverse transcriptase infected in human PBMC cells after 4 days; format: cell-based
[9] = Half life in human serum at 600 mg, qd; format: ADME, cell-free
[10] = target: T1, Human immunodeficiency virus type 1 reverse transcriptase (Human immunodeficiency virus 1, UniProt Q72547); assay: Inhibition of wild type recombinant HIV1 reverse transcriptase using poly(rA)-oligo(dT) as template/primer
[11] = system: Human immunodeficiency virus 1; assay: Antiviral activity against HIV1; format: functional, organism-based
[12] = system: Human immunodeficiency virus 1; assay: Antiviral activity against HIV1 assessed as serum adjusted potency; format: functional, organism-based
[13] = target: T1, Human immunodeficiency virus type 1 reverse transcriptase; assay: Inhibition of HIV1 reverse transcriptase derived from HIV patient plasma by LC/MS/MS analysis
[14] = Half life in human serum at 25 mg, qd; format: ADME, cell-free
[15] = target: T1, Human immunodeficiency virus type 1 reverse transcriptase; assay: Inhibition of HIV1 reverse transcriptase
[16] = target: Human immunodeficiency virus type 1 reverse transcriptase (Human immunodeficiency virus 1) (UniProt Q72547)
[17] = Half life in human serum at 100 mg, qd; format: ADME, cell-free
[18] = Half life in human serum at 400 mg, qd; format: ADME, cell-free

Cmax [1]: 4.6 to 17.4 µM | Cmax [2]: 16 to 33 µM | Tmax [3]: 0.5 to 1 h | logP [4]: 1.28
Structure (SMILES): CCNc1cccnc1N1CCN(C(=O)c2cc3cc(OC)ccc3[nH]2)CC1.CS(=O)(=O)O [ATEVIRDINE SULPHATE]

logP [4]: 1.65
Structure (SMILES): O=C1Nc2ccccc2Nc2ncccc21

ED50 [8]: 0.3 µM
Structure (SMILES): CC(C)Nc1cccnc1N1CCN(C(=O)c2cc3cc(F)ccc3[nH]2)CC1

ED50 [8]: 0.3 µM
Structure (SMILES): CCNc1cccnc1N1CCN(C(=O)c2cc3ccccc3[nH]2)CC1

logP [4]: 3.3 | ED50 [8]: 2 µM
Structure (SMILES): CCNc1cccnc1N1CCN(C(=O)c2cc(C)c(OC)c(C)c2)CC1

IC50 [10]: 20 µM | ED50 [8]: 2 µM
Structure (SMILES): CCNc1cccnc1N1CCN(Cc2cc(C)c(OC)c(C)c2)CC1

IC50 [13]: 6 µM
Structure (SMILES): O=C1Nc2cccnc2Nc2ccccc21

ED50 [8]: 0.3 µM
Structure (SMILES): CC(C)Nc1cccnc1N1CCN(C(=O)c2cc3ccccc3[nH]2)CC1

ED50 [8]: 0.3 µM
Structure (SMILES): COc1ccc2[nH]c(C(=O)N3CCN(c4ncccc4NC(C)C)CC3)cc2c1

logP [4]: 2.09
Structure (SMILES): CCN1c2ncccc2C(=O)Nc2c(C)ccnc21

logP [4]: 2.46
Structure (SMILES): CCN1c2ccccc2N(C)C(=O)c2cccnc21

logP [4]: 1.84
Structure (SMILES): CCN1c2ncccc2C(=O)N(C)c2cccnc21

half-life [18]: 2 to 11 h
Structure (SMILES): CC(C)Nc1cccnc1N1CCN(C(=O)c2cc3cc(NS(C)(=O)=O)ccc3[nH]2)CC1 [DELAVIRDINE]

The next lines start with the molecule.

Structure (SMILES): NC(=O)c1[nH]c2ccccc2c1S(=O)(=O)c1ccccc1
EC50 [5]: 180 µM

Structure (SMILES): Cc1ccnc2c1NC(=O)c1cccnc1N2C1CC1 [NEVIRAPINE]
half-life [6]: 25 to 30 h | bioavailability [7]: 95% | logP [4]: 2.05

Structure (SMILES): O=C1Nc2ccc(Cl)cc2[C@@](C#CC2CC2)(C(F)(F)F)O1 [EFAVIRENZ]
half-life [9]: 40 to 55 h

Structure (SMILES): N#Cc1cc(Cl)cc(Oc2c(Br)ccc(CC(=O)Nc3ccc(S(N)(=O)=O)cc3Cl)c2F)c1 [DEPULFAVIRINE]
EC50 [11]: 0.0012 µM | EC50 [12]: 0.0138 µM

Structure (SMILES): O=C1Nc2cccnc2Nc2ncccc21
logP [4]: 1.03

Structure (SMILES): Cc1cc(/C=C/C#N)cc(C)c1Nc1ccnc(Nc2ccc(C#N)cc2)n1 [RILPIVIRINE]
half-life [14]: 50 h

Structure (SMILES): Cc1cc(/C=C/C#N)cc(F)c1Nc1cccc(Nc2ccc(C#N)cc2)n1
EC50 [5]: 5500 µM

Structure (SMILES): NC(=O)c1[nH]c2cccc(Cl)c2c1S(=O)(=O)c1ccccc1
EC50 [5]: 1 µM

Structure (SMILES): O=S1(c2ccccc2)=NC(=S)Nc2ccccc21 (centres undefined)
IC50 [15]: 0.95 to 5.11 µM

Structure (SMILES): CCOC1(c2ccccc2)c2cc(Cl)ccc2NC(=S)N1C (centres undefined)
IC50 [15]: 0.056 µM

Structure (SMILES): Cc1cn([C@H]2C[C@H](N=[N+]=[N-])[C@@H](CO)O2)c(=O)[nH]c1=O
ED50 [8]: 0.07 µM

Structure (SMILES): CC1O[C@](/C=C/C2CC2)(C(F)(F)F)c2cc(Cl)ccc2NC1=O (some centres undefined)
IC50 [15]: 0.046 µM

Structure (SMILES): Cc1ccnc2c1NC(=O)c1cccnc1N2
logP [4]: 1.52

Structure (SMILES): O=C1Nc2ccc(Cc3ccccc3)cc2[C@@](C#CC2CC2)(C(F)(F)F)O1
IC90 [16]: 0.279 µM

Structure (SMILES): Cc1cc(/C=C/C#N)cc(F)c1Nc1ccc(F)c(Nc2ccc(C#N)cc2)n1
EC50 [5]: 1000 µM

Structure (SMILES): Cn1c(Cn2ccc(C(F)(F)F)c(Oc3cc(Cl)cc(C#N)c3)c2=O)n[nH]c1=O [DORAVIRINE]
half-life [17]: 11 to 15 h

Structure (SMILES): CC1O[C@](C#CC2CC2)(C(F)(F)F)c2cc(Cl)ccc2NC1=O (some centres undefined)
IC50 [15]: 0.082 µM

Structure (SMILES): Cc1cc(C#N)cc(C)c1Oc1nc(Nc2ccc(C#N)cc2)nc(N)c1Br [ETRAVIRINE]
half-life [6]: 41 h
